Experimental data from EPA's CvTdb concentration-time database.

How the values were obtained:
Mouse [1] = experiment: concentration in plasma after dosing; conditions: 0.25 h; dosed: 2-Hydroxy-4-methoxybenzophenone; 250 mg/kg; oral; Female; B6C3F1
Mouse [2] = experiment: concentration in plasma after dosing; conditions: 0.25 h; dosed: 2-Hydroxy-4-methoxybenzophenone; 50 mg/kg; iv; Male; B6C3F1
Rat [3] = experiment: concentration in plasma after dosing; conditions: dosed: 2-Hydroxy-4-methoxybenzophenone, 250 mg/kg, oral, Female, F344
Rat [4] = experiment: concentration in plasma after dosing; conditions: dosed: 2-Hydroxy-4-methoxybenzophenone, 250 mg/kg, oral, Male, F344
Mouse [5] = experiment: concentration in plasma after dosing; conditions: 0.25 h; dosed: 2-Hydroxy-4-methoxybenzophenone; 50 mg/kg; iv; Male; B6C3F1; remark: listed apart in the source
Rat [6] = experiment: concentration in plasma after dosing; conditions: 0.25 h; dosed: 2-Hydroxy-4-methoxybenzophenone; 500 mg/kg; oral; Male; F344
Rat [7] = experiment: concentration in plasma after dosing; conditions: dosed: 2-Hydroxy-4-methoxybenzophenone, 500 mg/kg, oral, Male, F344
Mouse [8] = experiment: concentration in plasma after dosing; conditions: 2 h; dosed: 2-Hydroxy-4-methoxybenzophenone; 250 mg/kg; oral; Male; B6C3F1
Rat [9] = experiment: concentration in plasma after dosing; conditions: dosed: 2-Hydroxy-4-methoxybenzophenone, 250 mg/kg, oral, Male, F344; remark: listed apart in the source
Rat [10] = experiment: concentration in plasma after dosing; conditions: dosed: 2-Hydroxy-4-methoxybenzophenone, 8 mg/kg, iv, Female, F344
Rat [11] = experiment: concentration in plasma after dosing; conditions: dosed: Nitrite, 20 mg/kg, iv, Male, F344
Rat [12] = experiment: concentration in plasma after dosing; conditions: 5 min; dosed: Nitrite; 40 mg/kg; oral; Female; Harlan Sprague-Dawley
Rat [13] = experiment: concentration in plasma after dosing; conditions: dosed: Nitrite, 80 mg/kg, oral, Female, F344
Rat [14] = experiment: concentration in plasma after dosing; conditions: 0.5 h; dosed: Nitrite; 20 mg/kg; iv; Male; F344
Rat [15] = experiment: concentration in plasma after dosing; conditions: 10 min; dosed: Nitrite; 80 mg/kg; oral; Female; F344
Rat [16] = experiment: concentration in plasma after dosing; conditions: dosed: Nitrite, 80 mg/kg, oral, Female, F344; remark: listed apart in the source
Rat [17] = experiment: concentration in plasma after dosing; conditions: dosed: Nitrite, 80 mg/kg, oral, Female, F344; remark: listed apart in the source
Rat [18] = experiment: concentration in plasma after dosing; conditions: 0.5 h; dosed: Nitrite; 80 mg/kg; oral; Female; F344
Rat [19] = experiment: concentration in liver after dosing; conditions: 0.5 h; dosed: Fluorotelomer alcohol 8+2; 80 mg/kg; oral; Female; Harlan Sprague Dawley
Rat [20] = experiment: concentration in plasma after dosing; conditions: dosed: 678-39-7, 40 mg/kg, iv, Male, F344
Rat [21] = experiment: concentration in plasma after dosing; conditions: dosed: 678-39-7, 40 mg/kg, iv, Male, F344; remark: listed apart in the source
Rat [22] = experiment: concentration in liver after dosing; conditions: 0.5 h; dosed: Fluorotelomer alcohol 8+2; 24 mg/kg; oral; Male; Harlan Sprague Dawley
Rat [23] = experiment: concentration in kidney after dosing; conditions: 6 h; dosed: Fluorotelomer alcohol 8+2; 24 mg/kg; oral; Male; Harlan Sprague Dawley
Rat [24] = experiment: concentration in kidney after dosing; conditions: 1 h; dosed: Potassium Perfluorobutane Sulfonate; 20 mg/kg; oral; Female; Harlan Sprague Dawley
Rat [25] = experiment: concentration in kidney after dosing; conditions: 6 h; dosed: Potassium Perfluorobutane Sulfonate; 20 mg/kg; oral; Female; Harlan Sprague Dawley
Rat [26] = experiment: concentration in liver after dosing; conditions: 12 h; dosed: Potassium Perfluorobutane Sulfonate; 20 mg/kg; oral; Male; Harlan Sprague Dawley
rat [27] = experiment: concentration in liver after dosing (ugEq/g tissue); conditions: dosed: benzo[a]pyrene, iv, male, Wistar

COc1ccc(C(=O)c2ccccc2)c(O)c1 [2-Hydroxy-4-methoxybenzophenone]
Conditions	concentration in plasma [ng/mL]
Mouse [1]	266
Mouse [2]	7710
Mouse [5]	7110
Mouse [8]	34
Rat [6]	403

Conditions	concentration in plasma [ng/mL]
Rat [3], 3 h	95.6
Rat [3], 10 min	26.9
Rat [4], 0.25 h	55.5
Rat [4], 4 h	84
Rat [7], 10 h	80.4
Rat [7], 10 min	113
Rat [9], 0.25 h	318
Rat [9], 4 h	48.1
Rat [10], 2 h	78.6
Rat [10], 10 min	3030

O=N[O-] [Nitrite]
Conditions	concentration in plasma [ng/mL]
Rat [11], 1.25 h	1700
Rat [11], 10 min	4800
Rat [13], 1 h	8100
Rat [13], 2 h	6800
Rat [16], 5 min	6900
Rat [16], 8 h	1800
Rat [17], 0.5 h	5200
Rat [17], 4 h	2300

Conditions	concentration in plasma [ng/mL]
Rat [12]	4100
Rat [14]	8100
Rat [15]	22900
Rat [18]	8900

O=C(O)C(F)(F)C(F)(F)C(F)(F)C(F)(F)C(F)(F)C(F)(F)C(F)(F)F [Perfluorooctanoic acid]
Conditions	concentration in kidney [ng/g]	concentration in liver [ng/g]
Rat [19]	–	470
Rat [22]	–	300
Rat [23]	421	–

concentration in plasma [ng/mL]
Conditions	0.25 h	0.5 h	3 h	5 min	6 h	12 h
Rat [20]	264000	–	–	–	108000	–
Rat [21]	–	234000	2800	172	–	25600

O=S(=O)([O-])C(F)(F)C(F)(F)C(F)(F)C(F)(F)F.[K+] [Potassium Perfluorobutane Sulfonate]
Conditions	concentration in kidney [ng/g]	concentration in liver [ng/g]
Rat [24]	21100	–
Rat [25]	587	–
Rat [26]	–	10100

c1ccc2c(c1)cc1ccc3cccc4ccc2c1c34 [benzo[a]pyrene]
concentration in liver, rat [27]
Conditions	2 mg/kg	6 mg/kg	15 mg/kg
0.5 h	2.43	11.4	15.2
0.75 h	1.34	11.1	13.1
1 h	0.34	5.54	4.86
1.5 h	0.91	1.32	8.51
2 h	0.01	0.55	3.39
3 h	–	0.15	0.72
4 h	–	0.09	0.24
5 h	–	0.06	0.14
5 min	11.3	31.2	27.5
6 h	–	0.06	0.16
8 h	–	0.02	0.05
10 min	6.52	24.3	29.8
20 min	4.01	16.1	21.9
24 h	–	0.01	0.01
32 h	–	0.02	–
